In US12421205B2, “GLP-1 receptor agonist” (HYUNDAI PHARM CO., LTD., priority 2019, dated 2025):
pEC50: −log10 of the molar value.

How the values were obtained:
human GLP-1 receptor = molecular target: T1, human GLP-1 receptor (Homo sapiens, UniProt P43220); experiment: cAMP activity test (cAMP dynamic HTRF kit) in CHO-K1/GLP-1 receptor-expressing cells; type: cell-based; conditions: cAMP activity, CHO-K1/GLP-1 receptor-expressing cells; read-out: EC50
T1 construct: host or cells: CHO-K1
Procedure: The next day, the medium was removed, and a 50 uL of HBSS medium containing 0.1% BSA, 0.5 mM IBMX, and 5 mM HEPES was added to each well. […] The cAMP activity was measured according to the manufacturer's instructions using the cAMP dynamic HTRF kit (Cisbio, 62AM4PEC). After incubation, the medium was discarded, and the cells were lysed. cAMP-d2 and anti-cAMP cryptate conjugate were added thereto and reacted for 3 hours. […] Intracellular cAMP competes with cAMP-d2 for anti-cAMP cryptate, and the measured signal of fluorescence resonance energy transfer (FRET) is inversely proportional to intracellular cAMP.

hERG = molecular target: T2, hERG (Homo sapiens, UniProt Q12809); experiment: hERG inhibition test (Predictor hERG Fluorescence Polarization assay kit); type: binding; conditions: probe kit Tracer (fluorescent hERG ligand), hERG % inhibition at 10 uM, relative to E-4031 and solvent control
T2 construct: purchased Invitrogen PV5365
Procedure: To measure the hERG (Human ether-a-go-go-related gene) channel inhibition rate of the compound according to the present invention, the following test was performed using a Predictor hERG Fluorescence Polarization assay kit (Invitrogen, PV5365).
Specifically, a test substance was dissolved in DMSO to prepare a 50 mM solution. A 4 mM solution was prepared by diluting the 50 mM solution with DMSO in a U bottom 96-well plate (SPL, 34096), and was then diluted 100-fold with a test buffer to prepare a 40 uM (4×) solution. The positive control E-4031 (3 mM) provided in the kit was diluted 25-fold with a test buffer to prepare a 120 uM solution) 5 uL of the diluted test substance solution was dispensed into a 384-well assay plate (corning, 3677). hERG Membrane (2×) and Tracer (4×) provided in the kit were respectively added at 10 uL and 5 uL, and then subjected to the reaction at room temperature for 2.5 hours. After completion of the reaction, fluorescence polarization (mP) was measured with a Multimode Plate Reader (Perkin-Elmer, Envision) (excitation wavelength of 531 nm, and emission wavelength 579 nm). The value of the percent inhibitory activity (% inhibition) at 10 uM of each test substance was calculated by the following equation, and the results are shown in Table 2: (% inhibition)=100−{(mP of the compound according to the present invention−E-4031 mP)/(mP of the solvent control−E-4031 mP)}×100

T2 sequence (Q12809 whole entry): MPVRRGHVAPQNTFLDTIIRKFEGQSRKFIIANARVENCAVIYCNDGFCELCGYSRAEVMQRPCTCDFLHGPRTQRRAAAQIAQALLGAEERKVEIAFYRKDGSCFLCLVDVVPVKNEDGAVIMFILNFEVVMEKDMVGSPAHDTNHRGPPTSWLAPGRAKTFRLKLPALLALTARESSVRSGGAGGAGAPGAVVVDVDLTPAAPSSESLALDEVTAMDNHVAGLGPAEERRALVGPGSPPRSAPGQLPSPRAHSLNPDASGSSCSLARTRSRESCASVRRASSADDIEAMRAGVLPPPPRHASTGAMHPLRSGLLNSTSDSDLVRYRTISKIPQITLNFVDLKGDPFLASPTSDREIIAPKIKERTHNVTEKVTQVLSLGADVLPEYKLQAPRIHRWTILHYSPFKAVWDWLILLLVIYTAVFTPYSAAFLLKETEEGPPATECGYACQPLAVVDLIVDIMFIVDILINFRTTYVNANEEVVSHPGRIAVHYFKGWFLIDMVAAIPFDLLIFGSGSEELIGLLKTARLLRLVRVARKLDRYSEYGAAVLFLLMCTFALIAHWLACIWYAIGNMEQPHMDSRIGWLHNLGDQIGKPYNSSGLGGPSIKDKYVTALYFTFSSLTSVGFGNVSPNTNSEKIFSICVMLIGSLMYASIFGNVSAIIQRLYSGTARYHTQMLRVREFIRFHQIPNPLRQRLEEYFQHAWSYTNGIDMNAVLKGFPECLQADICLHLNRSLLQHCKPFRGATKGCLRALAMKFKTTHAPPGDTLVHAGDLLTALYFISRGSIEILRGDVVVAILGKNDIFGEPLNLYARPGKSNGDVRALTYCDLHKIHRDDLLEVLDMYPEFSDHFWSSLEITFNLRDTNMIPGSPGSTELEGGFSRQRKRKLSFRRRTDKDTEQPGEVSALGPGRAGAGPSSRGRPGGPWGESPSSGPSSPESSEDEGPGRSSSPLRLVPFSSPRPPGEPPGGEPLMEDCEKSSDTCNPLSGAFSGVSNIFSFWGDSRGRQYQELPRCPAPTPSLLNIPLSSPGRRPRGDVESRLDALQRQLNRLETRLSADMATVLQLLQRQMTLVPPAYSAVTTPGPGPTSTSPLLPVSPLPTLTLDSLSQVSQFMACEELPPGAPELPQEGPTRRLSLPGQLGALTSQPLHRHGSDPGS
T1 sequence (P43220 24-463): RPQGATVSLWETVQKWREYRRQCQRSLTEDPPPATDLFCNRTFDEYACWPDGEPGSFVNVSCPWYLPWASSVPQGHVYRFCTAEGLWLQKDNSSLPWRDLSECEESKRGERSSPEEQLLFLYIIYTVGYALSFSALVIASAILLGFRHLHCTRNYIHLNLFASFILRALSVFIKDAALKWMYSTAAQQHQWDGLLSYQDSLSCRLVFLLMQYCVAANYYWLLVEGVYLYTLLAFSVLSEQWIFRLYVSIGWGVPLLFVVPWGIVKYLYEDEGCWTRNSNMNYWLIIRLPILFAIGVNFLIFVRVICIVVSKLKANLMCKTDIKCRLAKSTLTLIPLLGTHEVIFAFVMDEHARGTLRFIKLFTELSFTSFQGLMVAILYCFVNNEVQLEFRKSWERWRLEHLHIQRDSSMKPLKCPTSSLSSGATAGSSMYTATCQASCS

Row | Compound | pEC50 (human GLP-1 receptor) | inhibition at 2.5 h, 10 µM (hERG)
1 | N#Cc1ccc(COc2cccc(-c3ccc(Cc4nc5ccc(C(=O)O)cc5n4C[C@@H]4CCO4)cc3F)n2)cc1 [Example 118, (S)-2-(4-(6-((4-cyanobenzyl)oxy)pyridin-2-yl)-3-fluorobenzyl)-1-(oxetan-2-ylmethyl)-1H-benzo[d]imidazole-6-carboxylic acid] | 8.37 | 20.7%
2 | N#Cc1ccc(COc2cccc(-c3cc(F)c(Cc4nc5ccc(C(=O)O)cc5n4C[C@@H]4CCO4)c(F)c3)n2)c(F)c1 [Example 103, (S)-2-(4-(6-(4-cyano-2-fluorobenzyloxy)pyridin-2-yl)-2,6-difluorobenzyl)-1-(oxetan-2-ylmethyl)-1H-benzo[d]imidazole-6-carboxylic acid] | > 8.49 | 5.66%
3 | O=C(O)c1ccc2nc(Cc3ccc(-c4cccc(OCc5ccc([N+](=O)[O-])cc5)n4)c(F)c3)n(C[C@@H]3CCO3)c2c1 [Example 124, (S)-2-(3-fluoro-4-(6-((4-nitrobenzyl)oxy)pyridin-2-yl)benzyl)-1-(oxetan-2-ylmethyl)-1H-benzo[d]imidazole-6-carboxylic acid] | 8.37 | 7.28%
4 | O=C(O)c1ccc2nc(Cc3ccc(-c4cccc(OCc5ccc(C(F)(F)F)cc5)n4)cc3F)n(CC3CCCO3)c2c1 (stereo not shown) [Example 77, 2-(2-fluoro-4-(6-(4-(trifluoromethyl)benzyloxy)pyridin-2-yl)benzyl)-1-((tetrahydrofuran-2-yl)methyl)-1H-benzo[d]imidazole-6-carboxylic acid] | 7.55 | -70.9%
5 | N#Cc1ccc(COc2cccc(-c3ccc(Cc4nc5ccc(C(=O)O)cc5n4CC4CCCO4)c(F)c3F)n2)c(F)c1 (stereo not shown) [Example 62, 2-(4-(6-(4-cyano-2-fluorobenzyloxy)pyridin-2-yl)-2,3-difluorobenzyl)-1-((tetrahydrofuran-2-yl)methyl)-1H-benzo[d]imidazole-6-carboxylic acid] | 7.43 | -7.49%
6 | N#Cc1ccc(COc2cccc(-c3ccc(Cc4nc5ccc(C(=O)O)cc5n4C[C@H]4CCCO4)cc3F)c2)c(F)c1 [Example 47, (R)-2-((3′-(4-cyano-2-fluorobenzyloxy)-2-fluorobiphenyl-4-yl)methyl)-1-((tetrahydrofuran-2-yl)methyl)-1H-benzo[d]imidazole-6-carboxylic acid] | 5.89 | -17.1%
7 | O=C(O)c1ccc2nc(Cc3ccc(-c4cccc(OCc5ccc(Cl)cc5F)n4)cc3F)n(C[C@@H]3CCO3)c2c1 [Example 78, (S)-2-(4-(6-(4-chloro-2-fluorobenzyloxy)pyridin-2-yl)-2-fluorobenzyl)-1-(oxetan-2-ylmethyl)-1H-benzo[d]imidazole-6-carboxylic acid] |  | -17.9%
8 | N#Cc1ccc(COc2cccc(-c3ccc(Cc4nc5ccc(C(=O)O)cc5n4C[C@@H]4CCO4)c(F)c3)n2)c(F)c1 [Example 73, (S)-2-(4-(6-(4-cyano-2-fluorobenzyloxy)pyridin-2-yl)-2-fluorobenzyl)-1-(oxetan-2-ylmethyl)-1H-benzo[d]imidazole-6-carboxylic acid] |  | -14.6%
9 | O=C(O)c1ccc2nc(Cc3ccc(-c4cccc(OCC5CC5)n4)c(F)c3)n(C[C@@H]3CCO3)c2c1 [Example 135, (S)-2-(4-(6-(cyclopropylmethoxy)pyridin-2-yl)-3-fluorobenzyl)-1-(oxetan-2-ylmethyl)-1H-benzo[d]imidazole-6-carboxylic acid] |  | -14%
10 | O=C(O)c1ccc2nc(Cc3ccc(-c4cccc(OCc5ccc(Cl)cc5)n4)c(F)c3)n(CC3CCCO3)c2c1 (stereo not shown) [Example 94, 2-(4-(6-(4-chlorobenzyloxy)pyridin-2-yl)-3-fluorobenzyl)-1-((tetrahydrofuran-2-yl)methyl)-1H-benzo[d]imidazole-6-carboxylic acid] |  | 18.9%

Now from value to compound, other results behind:

Row | pEC50 (human GLP-1 receptor) | Compound | inhibition at 2.5 h, 10 µM (hERG)
11 | 7.38 | COCCn1c(Cc2c(F)cc(-c3cccc(OCc4ccc(Cl)cc4F)c3)cc2F)nc2ccc(C(=O)O)cc21 [Example 48, 2-((3′-(4-chloro-2-fluorobenzyloxy)-3,5-difluorobiphenyl-4-yl)methyl)-1-(2-methoxyethyl)-1H-benzo[d]imidazole-6-carboxylic acid] | 14.3%
12 | 6.10 | O=C(O)c1ccc2nc(Cc3ccc(-c4cccc(OCc5ccc(Cl)cc5F)c4)cc3F)n(CCF)c2c1 [Example 56, 2-((3′-(4-chloro-2-fluorobenzyloxy)-3-fluorobiphenyl-4-yl)methyl)-1-(2-fluoroethyl)-1H-benzo[d]imidazole-6-carboxylic acid] | 0.83%
13 | 6.77 | N#Cc1ccc(COc2cccc(-c3ccc(Cc4nc5ccc(C(=O)O)cc5n4CCF)cc3F)n2)c(F)c1 [Example 58, 2-(4-(6-(4-cyano-2-fluorobenzyloxy)pyridin-2-yl)-3-fluorobenzyl)-1-(2-fluoroethyl)-1H-benzo[d]imidazole-6-carboxylic acid] | 2.81%
14 | 7.22 | O=C(O)c1ccc2nc(Cc3ccc(-c4cccc(OCc5ccc(Cl)cc5F)c4)c(F)c3)n(Cc3cnco3)c2c1 [Example 33, 2-((3′-(4-chloro-2-fluorobenzyloxy)-2-fluorobiphenyl-4-yl)methyl)-1-(oxazol-5-ylmethyl)-1H-benzo[d]imidazole-6-carboxylic acid] | -9.08%
15 | 6.34 | O=C(O)c1ccc2nc(Cc3ccc(-c4ccc(F)c(OCc5ccc(Cl)cc5F)c4)cn3)n(CC3CCCO3)c2c1 (stereo not shown) [Example 102, 2-((5-(3-(4-chloro-2-fluorobenzyloxy)-4-fluorophenyl)pyridin-2-yl)methyl)-1-((tetrahydrofuran-2-yl)methyl)-1H-benzo[d]imidazole-6-carboxylic acid] | -31.9%
16 | 7.14 | O=C(O)c1ccc2nc(Cc3ccc(-c4cccc(OCc5ccc(Cl)cc5F)n4)cc3F)n(CCF)c2c1 [Example 43, 2-(4-(6-(4-chloro-2-fluorobenzyloxy)pyridin-2-yl)-2-fluorobenzyl)-1-(2-fluoroethyl)-1H-benzo[d]imidazole-6-carboxylic acid] | -2.26%
17 | 8.04 | O=C(O)c1ccc2nc(Cc3ccc(-c4cccc(OCc5ccc(Cl)cc5F)n4)cc3F)n(Cc3cnco3)c2c1 [Example 34, 2-(4-(6-(4-chloro-2-fluorobenzyloxy)pyridin-2-yl)-2-fluorobenzyl)-1-(oxazol-5-ylmethyl)-1H-benzo[d]imidazole-6-carboxylic acid] | -12.6%
18 | 6.59 | COCCn1c(Cc2ccc(-c3cccc(OCc4ccc(C#N)cc4F)c3)c(F)c2)nc2ccc(C(=O)O)cc21 [Example 40, 2-((3′-(4-cyano-2-fluorobenzyloxy)-2-fluorobiphenyl-4-yl)methyl)-1-(2-methoxyethyl)-1H-benzo[d]imidazole-6-carboxylic acid] | 6.91%
19 | 6.89 | O=C(O)c1ccc2nc(Cc3ccc(-c4cccc(OCc5ccc(Cl)cc5F)c4)cc3)n(CC3CCCO3)c2c1 (stereo not shown) [Example 24, 2-((3′-(4-chloro-2-fluorobenzyloxy)biphenyl-4-yl)methyl)-1-((tetrahydrofuran-2-yl)methyl)-1H-benzo[d]imidazole-6-carboxylic acid] | -7.68%
20 | 7.80 | N#Cc1ccc(COc2cccc(-c3ccc(Cc4nc5ccc(C(=O)O)cc5n4CC4CCCO4)c(F)c3)n2)c(F)c1 (stereo not shown) [Example 15, 2-(4-(6-(4-cyano-2-fluorobenzyloxy)pyridin-2-yl)-2-fluorobenzyl)-1-((tetrahydrofuran-2-yl)methyl)-1H-benzo[d]imidazole-6-carboxylic acid] | 1.67%
21 | 8.09 | O=C(O)c1ccc2nc(Cc3ccc(-c4cccc(OCc5ccc(Cl)cc5F)n4)cc3F)n(CC3CCCO3)c2c1 (stereo not shown) [Example 17, 2-(4-(6-(4-chloro-2-fluorobenzyloxy)pyridin-2-yl)-2-fluorobenzyl)-1-((tetrahydrofuran-2-yl)methyl)-1H-benzo[d]imidazole-6-carboxylic acid] | -9.12%
22 | 5.70 | COCCn1c(Cc2ccc(-c3cccc(COc4ccc(Cl)cc4F)n3)cc2[N+](=O)[O-])nc2ccc(C(=O)O)cc21 [Example 7, 2-(4-(6-((4-chloro-2-fluorophenoxy)methyl)pyridin-2-yl)-2-nitrobenzyl)-1-(2-methoxyethyl)-1H-benzo[d]imidazole-6-carboxylic acid] | 1.63%
